# Data reported in publication PMC9952466, “Characterization of Antioxidant and α-Glucosidase Inhibitory Compounds of Cratoxylum formosum ssp. pruniflorum and Optimization of Extraction Condition” (Antioxidants, 2023).
# System: not listed separately
# Assay: antioxidant activity by DPPH radical scavenging
# Details: DPPH radical scavenging
# Procedure: (§1) The inhibitory effect on α-glucosidase was measured using α-glucosidase from Saccharomyces cerevisiae (EC 3.2.1.20). A test sample was mixed with 80 μL enzyme buffer and 10 μL α-glucosidase and incubated for 15 min at 37 °C. Then, after the addition of 10 μL p-nitrophenyl α-D-glucopyranoside solution for enzyme reaction, the amount of p-nitrophenol that was cleaved by the enzyme was determined by measuring the absorbance at 405 nm in a 96-well microplate reader. Acarbose was used as a positive control. The antioxidant activity was evaluated by measuring the DPPH radical scavenging activity using ascorbic acid as a positive control.
row,Compound,antioxidant activity (in words)
1,"CC(C)=CCc1c(O)c(O)c(C/C=C(\C)CCCC(C)(C)O)c2oc3ccc(O)cc3c(=O)c12 [Compound 16, pruniflonone A]",weak efficacy
2,"O=C(c1ccccc1)c1cc(O)c(O)c(OC2OC(CO)C(O)C(O)C2O)c1 (stereo not drawn) [Compound 19, pruniflonone B]",weak effect

# Same assay, conditions: at 50 μM
row,Compound,DPPH radical scavenging activity
1,isocudraniaxanthone B [Compound 3],more than 50%
2,"COc1cc2c(=O)c3c(O)c(O)c(O)cc3oc2cc1O [Compound 17, caloxanthone E]",more than 50%
3,"CC(C)=CCc1c(O)cc2oc3cc(O)c(O)c(CC=C(C)C)c3c(=O)c2c1O [Compound 6, γ-mangostin]",more than 50%
4,"O=c1c2cc(O)c(O)cc2oc2cc(O)c([C@@H]3O[C@H](CO)[C@@H](O)[C@H](O)[C@H]3O)c(O)c12 [Compound 18, mangiferin]",more than 50%

# System: α-glucosidase from Saccharomyces cerevisiae (EC 3.2.1.20)
# Assay: α-glucosidase inhibitory effect (p-nitrophenyl α-D-glucopyranoside, absorbance 405 nm)
# Format: biochemical
# Details: not given
# Procedure: as §1
row,Compound,α-glucosidase inhibitory activity (in words)
1,"Oc1cc(O)c2c(c1)O[C@H](c1ccc(O)c(O)c1)[C@H](O)C2 [Compound 21, epicatechin]",good inhibition
2,"CC(C)=CCc1c(O)c(O)cc2c(=O)c3c(O)cc(O)cc3oc12 [Compound 1, cochinchinone F]",reduced the efficacy
3,"O=C(c1ccccc1)c1cc(O)c(O)c(OC2OC(CO)C(O)C(O)C2O)c1 (stereo not drawn) [Compound 19, pruniflonone B]",weak effect
